Measured values from the NIST ThermoML archive (doi:10.1016/j.jct.2012.10.017).
± gives the expanded uncertainty stated by the source.

Settings: Liquid, Ebulliometric method (Recirculating still)

Compound	vapor or sublimation pressure (449.39 K)	vapor or sublimation pressure (428.65 K)
Cc1ccc(C(C)C)cc1 [1-(1-methylethyl)-4-methylbenzene]	100.7 ± 0.6 kPa	–
CC1=CCC2CC1C2(C)C (configuration not stated) [2-pinene]	–	100.7 ± 1.1 kPa
